Measured values as given in patent US20160367537A1, “COMPOSITIONS AND METHODS FOR THE TREATMENT AND MANAGEMENT OF STEATOSIS IN HUMAN LIVER” (WAKE FOREST UNIVERSITY HEALTH SCIENCES, priority 2013, published 2016).

Tests used:
SOAT2 = target: T1, SOAT2 (Homo sapiens, UniProt O75908); test: Specificity for SOAT2 compared to SOAT1
T1 sequence (O75908 1-522): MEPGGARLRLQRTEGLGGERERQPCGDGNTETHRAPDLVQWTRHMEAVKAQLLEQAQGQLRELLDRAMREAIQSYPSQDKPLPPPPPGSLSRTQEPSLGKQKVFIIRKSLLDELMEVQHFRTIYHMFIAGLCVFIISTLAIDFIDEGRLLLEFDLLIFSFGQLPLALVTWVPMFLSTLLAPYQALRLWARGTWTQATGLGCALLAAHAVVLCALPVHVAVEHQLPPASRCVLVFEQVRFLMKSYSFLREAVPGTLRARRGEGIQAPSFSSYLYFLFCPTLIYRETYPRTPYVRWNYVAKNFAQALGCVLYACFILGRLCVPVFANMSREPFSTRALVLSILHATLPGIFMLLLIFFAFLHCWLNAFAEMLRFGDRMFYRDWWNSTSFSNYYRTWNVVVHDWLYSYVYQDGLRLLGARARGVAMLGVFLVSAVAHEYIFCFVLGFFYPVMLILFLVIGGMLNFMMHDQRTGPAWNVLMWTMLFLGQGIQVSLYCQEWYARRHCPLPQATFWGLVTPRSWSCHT

[1] = test system: lysosomal acid lipase deficient (LAL−/−) mice; test: Mouse model of lysosomal acid lipase deficiency, PRD125 as diet admixture; format: in vivo
Protocol: In the present example, hepatic lipid concentrations and content in a lysosomal acid lipase deficient (LAL^−/−) mouse model were determined in the presence and absence of selective SOAT2 inhibitors. The data are for male lysosomal acid lipase deficient mice on a FVB background. The mice were fed a chow diet for 21 days. During the subsequent 52 or 53 days, 5 mice were fed the chow diet without drug and 3 of 5 to be studied were fed a chow diet supplemented with PRD125 at a dose of 10 mg/kg/day. Animals were ex-sanguinated at 52 days and the blood plasma was collected in EDTA and frozen in liquid nitrogen. The livers, small intestine, and spleen were flushed with saline and rinsed, then also snap frozen in liquid nitrogen. All organs were weighed, and after freezing, approximately 25 mg of tissue was extracted in chloroform methanol, 2:1, for subsequent lipid determinations. Free and total cholesterol was measured enzymatically and esterified cholesterol was determined by difference. Aliquots of the terminal plasma were used for measurement of tissue enzymes.
Mice were studied starting at 21 days of age and studied for 52 to 53 days. Treatment with PRD125 was at 10 mg/kg/day and the compound was given as a diet admixture.

[2] = Absorption after oral intake; conditions: given in the diet
Stability in the diet = format: physicochemical; conditions: diet admixture

- specificity to SOAT2 compared to SOAT1 (SOAT2): over 5000 fold
- decrease of liver cholesterol content versus untreated mice ([1]; LAL−/− mice, 10 mg/kg/day as diet admixture): 65%
- absorption [2]: easily absorbed
- stability in the diet (Stability in the diet): stable
Structure (SMILES): Cc1ccccc1[C@@H]1OCC2(C)C3C[C@H](OC(=O)c4ccc(C#N)cc4)[C@@]4(C)Oc5cc(-c6cccnc6)oc(=O)c5[C@H](O)C4[C@@]3(C)CC[C@@H]2O1 (some centres unmarked) [PRD125]
- serum enzyme levels ([1]; male LAL−/− mice, 10 mg/kg/day as diet admixture, terminal plasma): reduced
- liver cholesterol esters ([1]; male LAL−/− mice, FVB background, 10 mg/kg/day as diet admixture, from 21 to 52 or 53 days of age): significantly reduced
- oral effectiveness ([1]; oral, does not need booster injections): effective orally
- cholesterol content of liver ([1]; treated LAL−/− mice, 10 mg/kg/day as diet admixture (untreated approximately 146 mg/liver)): ~39 mg/liver
